Experimental data published in the supplement of paper PMC10307832.

How the values were obtained:
Experiment in all cases: relative viability (nuclei count vs DMSO), 5 days (fraction); higher = more cells survive
201T = tested on: 201T
How it was run: (§1)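 For relative viability, nuclei counts in treated wells were divided by those in vehicle wells. Lung cancer cell lines had been pin-tool dosed in 1536-well plates the day after seeding and cultured for 5 days, then fixed and stained in one step (final 0.05% Triton X-100, 1% formaldehyde, 1 ug/ml Hoechst) and imaged at 4×. Doses were one drug alone or a fixed anchor-drug dose plus five library-drug doses (not always all listed) in √10 steps, and values are duplicate-plate medians.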

COR-L 105 = tested on: COR-L 105
How it was run: as §1

COR-L23 = tested on: COR-L23
How it was run: as §1

EKVX = tested on: EKVX
How it was run: as §1

EPLC-272H = tested on: EPLC-272H
How it was run: as §1

H3255 = tested on: H3255
How it was run: as §1

HCC-15 = tested on: HCC-15
How it was run: as §1

HCC-827 = tested on: HCC-827
How it was run: as §1

LCLC-97TM1 = tested on: LCLC-97TM1
How it was run: as §1

NCI-H1395 = tested on: NCI-H1395
How it was run: as §1

NCI-H1650 = tested on: NCI-H1650
How it was run: as §1

NCI-H1651 = tested on: NCI-H1651
How it was run: as §1

With Oc1nc(-c2ccc(C(F)(F)F)cc2)nc2c1CSCC2 [XAV939] + Cc1nc(Nc2ncc(C(=O)Nc3c(C)cccc3Cl)s2)cc(N2CCN(CCO)CC2)n1 [Dasatinib] (partner 0.075 µM) as the molecule, how does the relative viability (201T; first compound 0.08 µM) read?
Its relative viability is 0.432.

What about the relative viability (201T; first compound 0.253 µM) of the same molecule?
Its relative viability is 0.385.

And the relative viability (201T; first compound 0.8 µM)?
Its relative viability is 0.443.

And the relative viability (201T; first compound 2.53 µM)?
Its relative viability is 0.366.

And the relative viability (COR-L 105; first compound 0.08 µM)?
The relative viability was 0.348.

What about the relative viability (COR-L 105; first compound 0.253 µM) of the same molecule?
The relative viability was 0.378.

What about the relative viability (COR-L 105; first compound 0.8 µM) of the same molecule?
Its relative viability is 0.315.

What about the relative viability (COR-L 105; first compound 2.53 µM) of the same molecule?
The relative viability was 0.273.

What about the relative viability (COR-L23; first compound 0.08 µM) of the same molecule?
Its relative viability is 0.461.

What about the relative viability (COR-L23; first compound 0.253 µM) of the same molecule?
The relative viability was 0.424.

What about the relative viability (COR-L23; first compound 0.8 µM) of the same molecule?
The relative viability was 0.505.

What about the relative viability (COR-L23; first compound 2.53 µM) of the same molecule?
The relative viability was 0.444.

What about the relative viability (EKVX; first compound 0.08 µM) of the same molecule?
Its relative viability is 0.444.

What about the relative viability (EKVX; first compound 0.8 µM) of the same molecule?
The relative viability was 0.486.

What about the relative viability (EKVX; first compound 2.53 µM) of the same molecule?
The relative viability was 0.228.

And the relative viability (EPLC-272H; first compound 0.08 µM)?
Its relative viability is 0.385.

What about the relative viability (EPLC-272H; first compound 0.253 µM) of the same molecule?
Its relative viability is 0.403.

What about the relative viability (EPLC-272H; first compound 0.8 µM) of the same molecule?
Its relative viability is 0.355.

What about the relative viability (EPLC-272H; first compound 2.53 µM) of the same molecule?
The relative viability was 0.247.

What about the relative viability (H3255; first compound 0.08 µM) of the same molecule?
The relative viability was 0.341.

And the relative viability (H3255; first compound 0.253 µM)?
Its relative viability is 0.373.

And the relative viability (H3255; first compound 0.8 µM)?
The relative viability was 0.313.

What about the relative viability (H3255; first compound 2.53 µM) of the same molecule?
Its relative viability is 0.448.

What about the relative viability (HCC-15; first compound 0.08 µM) of the same molecule?
Its relative viability is 0.633.

And the relative viability (HCC-15; first compound 0.253 µM)?
The relative viability was 0.463.

And the relative viability (HCC-15; first compound 0.8 µM)?
The relative viability was 0.601.

What about the relative viability (HCC-15; first compound 2.53 µM) of the same molecule?
The relative viability was 0.54.

What about the relative viability (HCC-827; first compound 0.08 µM) of the same molecule?
The relative viability was 0.349.

And the relative viability (HCC-827; first compound 0.253 µM)?
The relative viability was 0.297.

And the relative viability (HCC-827; first compound 0.8 µM)?
Its relative viability is 0.393.

And the relative viability (HCC-827; first compound 2.53 µM)?
The relative viability was 0.437.

What about the relative viability (LCLC-97TM1; first compound 0.08 µM) of the same molecule?
The relative viability was 0.981.

And the relative viability (LCLC-97TM1; first compound 0.253 µM)?
The relative viability was 0.851.

And the relative viability (LCLC-97TM1; first compound 0.8 µM)?
Its relative viability is 0.964.

What about the relative viability (LCLC-97TM1; first compound 2.53 µM) of the same molecule?
Its relative viability is 0.977.

What about the relative viability (NCI-H1395; first compound 0.08 µM) of the same molecule?
The relative viability was 0.4.

And the relative viability (NCI-H1395; first compound 0.253 µM)?
The relative viability was 0.378.

What about the relative viability (NCI-H1395; first compound 0.8 µM) of the same molecule?
The relative viability was 0.381.

What about the relative viability (NCI-H1395; first compound 2.53 µM) of the same molecule?
Its relative viability is 0.458.

What about the relative viability (NCI-H1650; first compound 0.08 µM) of the same molecule?
The relative viability was 0.331.

And the relative viability (NCI-H1650; first compound 0.253 µM)?
The relative viability was 0.323.

And the relative viability (NCI-H1650; first compound 0.8 µM)?
The relative viability was 0.263.

What about the relative viability (NCI-H1650; first compound 2.53 µM) of the same molecule?
The relative viability was 0.288.

What about the relative viability (NCI-H1651; first compound 0.08 µM) of the same molecule?
Its relative viability is 0.389.

What about the relative viability (NCI-H1651; first compound 0.253 µM) of the same molecule?
The relative viability was 0.366.
